Results taken from patent US7846928B2, “Substituted pyrazolopyridines and salts thereof, pharmaceutical compositions comprising same, methods of preparing same and uses of same” (Bayer Schering Pharma AG, priority 2006, dated 2010).

Key:
[1] = molecular target: T1, human insuline receptor (Ins-R) kinase domain (Homo sapiens, UniProt P06213); test: InsR HTRF assay (assay 4); type: biochemical; settings: IC50 assay 4/IC50 assay 2
T1 construct: GST-tagged recombinant kinase domain of the human insuline receptor; GST; purchased ProQinase, Freiburg, Germany; host or cells: SF-9 cells
Description: Inhibitory activity of compounds against the kinase activity of the insulin receptor was quantified employing the Ins-R HTRF assay as described in the following paragraphs.
GST-tagged recombinant kinase domain of the human insuline receptor (Ins-R, purchase from ProQinase, Freiburg, Germany) expressed in SF-9 cells was used as kinase. As substrate for the kinase reaction biotinylated poly-(Glu,Tyr) (Cis biointernational, France) was used.
Ins-R was incubated for 20 min at 22° C. in the presence of different concentrations of test compounds in 5 μl assay buffer [50 mM Hepes/NaOH pH 7, 15 mM MnCl2, 1 mM dithiothreitol, 0.1 μM sodium ortho-vanadate, 0.015% (v/v) PEG20000, 10 μM adenosine-tri-phosphate (ATP), 0.3 μg/ml substrate, 1% (v/v) dimethylsulfoxide]. The concentration of Ins-R was adjusted depending of the activity of the enzyme lot and was chosen appropriate to have the assay in the linear range, typical concentrations were in the range of 10 pg/μl. The reaction was stopped by the addition of 5 μl of a solution of HTRF detection reagents (0.1 μM streptavidine-XLent and 1 nM PT66-Eu-Chelate, an europium-chelate labelled anti-phosphotyrosine antibody from Perkin Elmer) in an aqueous EDTA-solution (80 mM EDTA, 0.2% (w/v) bovine serum albumin in 50 mM HEPES/NaOH pH 7.0).
The resulting mixture was incubated 1 h at 22° C. to allow the binding of the biotinylated phosphorylated peptide to the streptavidine-XLent and the PT66-Eu-Chelate. Subsequently the amount of phosphorylated substrate was evaluated by measurement of the resonance energy transfer from the PT66-Eu-Chelate to the streptavidine-XLent. Therefore, the fluorescence emissions at 620 nm and 665 nm after excitation at 350 nm was measured in a HTRF reader, e.g. a Rubystar (BMG Labtechnologies, Offenburg, Germany) or a Viewlux (Perkin-Elmer). The ratio of the emissions at 665 nm and at […] was taken as the measure for the amount of phosphorylated substrate. The data were normalised (enzyme reaction without inhibitor=0% inhibition, all other assay components but no enzyme=100% inhibition) and IC50 values were calculated by a 4 parameter fit using an inhouse software.

Tie2 = Tie2 (Homo sapiens, UniProt Q02763); test: Tie2 ELISA assay (assay 1): cellular Tie2 autophosphorylation in Tie2-transfected CHO cells stimulated by angiopoietin-2; type: cell-based; parameters: expressed in transfected cells; host or cells: CHO (DHFR-deficient), stably transfected: CHO Tie2/DHFR; settings: CHO Tie2/DHFR cells, Ang2 stimulated, Tie2 autophosphorylation sandwich-ELISA; pIC50 = -log IC50 molar; read-out: Tie 2 activity (assay 1)
Description: Cellular activity of compounds of the present invention as inhibitors of Tie2 kinase activity was measured employing a Tie2 ELISA assay as described in the following paragraphs. Herein CHO cell-cultures, which are stably transfected by known techniques with Tie2 using DHFR deficiency as selection marker, are stimulated by angiopoietin-2. The specific autophosphorylation of Tie2 receptors is quantified with a sandwich-ELISA using anti-Tie2 antibodies for catch and anti-phosphotyrosine antibodies coupled to HRP for detection.
• 96 well tissue culture plate, sterile, Greiner • 96 well FluoroNunc plate MaxiSorp Surface C, Nunc • 96 well plate polypropylene for compound dilution in DMSO • CHO Tie2/DHFR (transfected cells) • PBS−; PBS++, DMSO • MEM alpha Medium with Glutamax-I without Ribonucleosides and • Deoxyribonucleosides (Gibco #32561-029) • with 10% FCS after dialysis! and 1% PenStrep • Lysis buffer: 1 Tablet “Complete” protease inhibitor • 1 cap Vanadate (1 mL>40 mg/mL; working solution 2 mM) • ad 50 mL with Duschl-Puffer • pH 7.6 • Anti-Tie2-antibody 1:425 in Coating Buffer pH 9.6 • Stock solution: 1.275 mg/mL>working: 3 μg/mL • PBST: 2 bottles PBS(10×)+10 ml Tween, fill up with VE-water • RotiBlock 1:10 in VE-water • Anti-Phosphotyrosine HRP-Conjugated 1:10000 in 3% TopBlock • 3% TopBlock in PBST • BM Chemiluminescence ELISA Substrate (POD) • solution B1:100 solution A • SF9 cell culture medium • Ang2-Fc in SF9 cell culture medium Cell Experiment: • Dispense 5×10^4 cells/well/98 μL in 96 well tissue culture plate • Incubate at 37° C./5% CO2 • After 24 h add compounds according to desired concentrations • Add also to control and stimulated values without compounds 2 μL DMSO • And mix for a few min at room temperature • Add 100 μL Ang2-Fc to all wells except control, which receives insect medium • Incubate 20 min at 37° C. • Wash 3× with PBS++ • Add 100 μl Lysis buffer/well and shake a couple of min at room temperature • Store lysates at 20° C. before utilizing for the ELISA Performance of Sandwich-ELISA • Coat 96 well FluoroNunc Plate MaxiSorp Surface C with anti-Tie2 mAb • 1:425 in Coating buffer pH 9.6; 100 μL/well overnight at 4° C. • Wash 2× with PBST • Block plates with 250 μL/well RotiBlock 1:10 in VE-water • Incubate for 2 h at room temperature or overnight at 4° C. shaking • Wash 2× in PBST • Add thawed lysates to wells and incubate overnight shaking at 4° C. • Wash 2× with PBST • Add 100 μL/well anti-Phosphotyrosine HRP-Conjugated 1:10000 in 3% • TopBlock (3% TopBlock in PBST) and incubate overnight under shaking • Wash 6× with PBST • Add 100 μL/well BM Chemiluminescence ELISA Substrate (POD) • solutions 1 und 2 (1:100) • Determine luminescence with the LumiCount. Assay 2: Tie-2-Kinase HTRF-Assay without Kinase Preactivation

Chain of Tie2 (Q02763 23-1124): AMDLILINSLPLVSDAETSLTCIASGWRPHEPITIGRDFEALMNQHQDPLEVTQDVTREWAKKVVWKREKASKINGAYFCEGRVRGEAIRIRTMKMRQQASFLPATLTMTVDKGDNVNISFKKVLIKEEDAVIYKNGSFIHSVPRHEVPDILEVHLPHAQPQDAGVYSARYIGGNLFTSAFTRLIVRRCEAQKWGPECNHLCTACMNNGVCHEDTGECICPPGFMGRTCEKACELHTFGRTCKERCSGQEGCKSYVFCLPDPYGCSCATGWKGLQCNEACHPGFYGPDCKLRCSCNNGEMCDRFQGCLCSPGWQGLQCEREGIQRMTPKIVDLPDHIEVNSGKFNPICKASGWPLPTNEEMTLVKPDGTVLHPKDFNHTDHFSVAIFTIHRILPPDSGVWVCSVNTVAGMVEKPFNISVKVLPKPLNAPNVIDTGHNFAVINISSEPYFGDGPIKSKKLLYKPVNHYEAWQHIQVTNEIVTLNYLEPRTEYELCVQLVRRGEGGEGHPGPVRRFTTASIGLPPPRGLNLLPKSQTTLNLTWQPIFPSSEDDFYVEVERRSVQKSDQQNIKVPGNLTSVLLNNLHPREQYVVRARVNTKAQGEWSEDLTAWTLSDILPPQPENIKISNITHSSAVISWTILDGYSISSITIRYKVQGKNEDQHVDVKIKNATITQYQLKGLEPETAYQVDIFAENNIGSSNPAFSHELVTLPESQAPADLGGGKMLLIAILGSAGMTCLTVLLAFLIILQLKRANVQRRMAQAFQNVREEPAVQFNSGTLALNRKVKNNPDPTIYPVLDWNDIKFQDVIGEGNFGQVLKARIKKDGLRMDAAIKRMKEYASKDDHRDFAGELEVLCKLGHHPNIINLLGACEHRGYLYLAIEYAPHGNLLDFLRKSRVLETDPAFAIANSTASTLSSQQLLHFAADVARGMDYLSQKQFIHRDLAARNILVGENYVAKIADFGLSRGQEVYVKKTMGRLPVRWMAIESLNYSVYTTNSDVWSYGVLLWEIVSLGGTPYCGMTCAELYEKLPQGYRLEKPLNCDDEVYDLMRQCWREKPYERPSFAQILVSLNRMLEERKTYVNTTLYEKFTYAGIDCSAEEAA
T1 sequence (P06213 1023-1298 limits assumed): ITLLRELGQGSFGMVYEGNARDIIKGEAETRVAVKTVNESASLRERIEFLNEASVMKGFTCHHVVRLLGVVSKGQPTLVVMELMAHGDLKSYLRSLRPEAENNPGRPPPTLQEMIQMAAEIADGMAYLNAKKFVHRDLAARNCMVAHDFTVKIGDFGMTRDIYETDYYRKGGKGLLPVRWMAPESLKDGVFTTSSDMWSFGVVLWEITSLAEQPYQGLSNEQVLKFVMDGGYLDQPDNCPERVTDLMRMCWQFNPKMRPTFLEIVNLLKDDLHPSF

SMILES: Cc1cc(-c2ccc(NC(=O)Nc3ccc(F)c(C(F)(F)F)c3)cc2)c2cnn(C)c2n1 [2.5, 1-[4-(1,6-Dimethyl-1H-pyrazolo[3,4-b]pyridin-4-yl)-phenyl]-3-(4-fluoro-3-trifluoromethyl-phenyl)-urea]
- Selectivity vs. InsR [1]: >20 fold
- IC50 (Tie2): 0.501 to 1 µM

SMILES: COc1ccc(C(F)(F)F)cc1NC(=O)Nc1ccc(-c2cc(C)nc3c2cnn3C)cc1 [2.7, 1-[4-(1,6-Dimethyl-1H-pyrazolo[3,4-b]pyridin-4-yl)-phenyl]-3-(2-methoxy-5-trifluoromethyl-phenyl)-urea]
- Selectivity vs. InsR [1]: >20 fold
- IC50 (Tie2): < 0.501 µM

SMILES: Cn1ncc2c(-c3ccc(NC(=O)Nc4cccc(C(F)(F)F)c4)cc3)cc(CN3CCOCC3)nc21 [3.2, 1-[4-(1-Methyl-6-morpholin-4-ylmethyl-1H-pyrazolo[3,4-b]pyridin-4-yl)-phenyl]-3-(3-trifluoromethyl-phenyl)-urea]
- Selectivity vs. InsR [1]: >20 fold
- IC50 (Tie2): < 0.501 µM

SMILES: CCc1cccc(NC(=O)Nc2ccc(-c3cc(CN4CCOCC4)nc4c3cnn4C)cc2)c1 [3.4, 1-(3-Ethyl-phenyl)-3-[4-(1-methyl-6-morpholin-4-ylmethyl-1H-pyrazolo[3,4-b]pyridin-4-yl)-phenyl]-urea]
- Selectivity vs. InsR [1]: >20 fold
- IC50 (Tie2): < 0.501 µM

SMILES: Cc1ccc(F)c(NC(=O)Nc2ccc(-c3cc(CN4CCOCC4)nc4c3cnn4C)cc2)c1 [3.5, 1-(2-Fluoro-5-methyl-phenyl)-3-[4-(1-methyl-6-morpholin-4-ylmethyl-1H-pyrazolo[3,4-b]pyridin-4-yl)-phenyl]-urea]
- Selectivity vs. InsR [1]: >20 fold
- IC50 (Tie2): < 0.501 µM
